Measured values as given in ChEMBL document CHEMBL3885881, “DrugMatrix”.

Species on record: Rattus norvegicus
Assay: DrugMatrix - Regimen: Daily Repeat
Format: toxicity, organism-based, Sprague-Dawley
Set-up: regimen Daily Repeat, gender Male, age 6-8 weeks
Details: in vivo, po, 79 mg/kg, route oral GAVAGE, dose level Low, […]; for ABSOLUTE BASOPHIL / ABSOLUTE EOSINOPHIL / ABSOLUTE LYMPHOCYTE / ABSOLUTE MONOCYTE / ABSOLUTE SEGMENTED NEUTROPHIL / BASOPHIL / EOSINOPHIL / ERYTHROCYTE COUNT / HEMATOCRIT / HEMOGLOBIN / LEUKOCYTE COUNT / LYMPHOCYTE / MEAN CORPUSCULAR HEMOGLOBIN / MEAN CORPUSCULAR HEMOGLOBIN CONCENTRATION / MEAN CORPUSCULAR VOLUME / MONOCYTE / NEUTROPHIL / NUCLEATED RED BLOOD CELLS / PLATELET COUNT: tissue Blood; for ALANINE AMINOTRANSFERASE / ALBUMIN / ALKALINE PHOSPHATASE / ASPARTATE AMINOTRANSFERASE / BLOOD UREA NITROGEN / CARBON DIOXIDE / CHLORIDE / CHOLESTEROL / CREATINE PHOSPHOKINASE / CREATININE / GLUCOSE / LACTATE DEHYDROGENASE / LIPASE / PHOSPHORUS / POTASSIUM / SODIUM / TOTAL BILIRUBIN / TOTAL PROTEIN / URIC ACID: tissue Plasma

COc1ccc2cc(CCC(C)=O)ccc2c1 [NABUMETONE]
ABSOLUTE BASOPHIL (72 h, time 3 day): 0 CELLS/uL | ABSOLUTE EOSINOPHIL (72 h, time 3 day): 0 CELLS/uL | ABSOLUTE LYMPHOCYTE (72 h, time 3 day): 14572 CELLS/uL | ABSOLUTE MONOCYTE (72 h, time 3 day): 0 CELLS/uL | ABSOLUTE SEGMENTED NEUTROPHIL (72 h, time 3 day): 1228 CELLS/uL | BASOPHIL (72 h, time 3 day): 0% | EOSINOPHIL (72 h, time 3 day): 0% | ERYTHROCYTE COUNT (72 h, time 3 day): 5.17 x10E6/uL | HEMATOCRIT (72 h, time 3 day): 32.13% | HEMOGLOBIN (72 h, time 3 day): 12.87 G/DL | LEUKOCYTE COUNT (72 h, time 3 day): 15.8 x10E3/uL | LYMPHOCYTE (72 h, time 3 day): 92.33% | MEAN CORPUSCULAR HEMOGLOBIN (72 h, time 3 day): 24.87 pg | MEAN CORPUSCULAR HEMOGLOBIN CONCENTRATION (72 h, time 3 day): 40.07 G/DL | MEAN CORPUSCULAR VOLUME (72 h, time 3 day): 62.1 fL | MONOCYTE (72 h, time 3 day): 0% | NEUTROPHIL (72 h, time 3 day): 7.67% | NUCLEATED RED BLOOD CELLS (72 h, time 3 day): 0 /100WBC | PLATELET COUNT (72 h, time 3 day): 1308.67 x10E3/uL | ALANINE AMINOTRANSFERASE (72 h, time 3 day): 72.33 u/L | ALBUMIN (72 h, time 3 day): 4 G/DL | ALKALINE PHOSPHATASE (72 h, time 3 day): 371 u/L | ASPARTATE AMINOTRANSFERASE (72 h, time 3 day): 79.33 u/L | BLOOD UREA NITROGEN (72 h, time 3 day): 15.67 mg/dL | CARBON DIOXIDE (72 h, time 3 day): 31 mmol/L | CHLORIDE (72 h, time 3 day): 103 MEQ/L | CHOLESTEROL (72 h, time 3 day): 83.67 mg/dL | CREATINE PHOSPHOKINASE (72 h, time 3 day): 226.33 u/L | CREATININE (72 h, time 3 day): 0.12 mg/dL | GLUCOSE (72 h, time 3 day): 150.67 mg/dL | LACTATE DEHYDROGENASE (72 h, time 3 day): 93.33 u/L | LIPASE (72 h, time 3 day): 10 u/L | PHOSPHORUS (72 h, time 3 day): 12.3 mg/dL | POTASSIUM (72 h, time 3 day): 6.52 MEQ/L | SODIUM (72 h, time 3 day): 144.77 MEQ/L | TOTAL BILIRUBIN (72 h, time 3 day): 0.13 mg/dL | TOTAL PROTEIN (72 h, time 3 day): 5.33 G/DL | URIC ACID (72 h, time 3 day): 1.73 mg/dL | ABSOLUTE BASOPHIL (120 h, time 5 day): 0 CELLS/uL | ABSOLUTE EOSINOPHIL (120 h, time 5 day): 33.67 CELLS/uL | ABSOLUTE LYMPHOCYTE (120 h, time 5 day): 9495 CELLS/uL | ABSOLUTE MONOCYTE (120 h, time 5 day): 148 CELLS/uL | ABSOLUTE SEGMENTED NEUTROPHIL (120 h, time 5 day): 1090 CELLS/uL | BASOPHIL (120 h, time 5 day): 0% | EOSINOPHIL (120 h, time 5 day): 0.33% | ERYTHROCYTE COUNT (120 h, time 5 day): 5.45 x10E6/uL | HEMATOCRIT (120 h, time 5 day): 33.1% | HEMOGLOBIN (120 h, time 5 day): 13.23 G/DL | LEUKOCYTE COUNT (120 h, time 5 day): 10.77 x10E3/uL | LYMPHOCYTE (120 h, time 5 day): 88.33% | MEAN CORPUSCULAR HEMOGLOBIN (120 h, time 5 day): 24.3 pg | MEAN CORPUSCULAR HEMOGLOBIN CONCENTRATION (120 h, time 5 day): 39.97 G/DL | MEAN CORPUSCULAR VOLUME (120 h, time 5 day): 60.83 fL | MONOCYTE (120 h, time 5 day): 1.33% | NEUTROPHIL (120 h, time 5 day): 10% | NUCLEATED RED BLOOD CELLS (120 h, time 5 day): 0 /100WBC | PLATELET COUNT (120 h, time 5 day): 1115 x10E3/uL | ALANINE AMINOTRANSFERASE (120 h, time 5 day): 69.33 u/L | ALBUMIN (120 h, time 5 day): 4.1 G/DL | ALKALINE PHOSPHATASE (120 h, time 5 day): 332 u/L | ASPARTATE AMINOTRANSFERASE (120 h, time 5 day): 95.67 u/L | BLOOD UREA NITROGEN (120 h, time 5 day): 12.33 mg/dL | CARBON DIOXIDE (120 h, time 5 day): 33 mmol/L | CHLORIDE (120 h, time 5 day): 103 MEQ/L | CHOLESTEROL (120 h, time 5 day): 61.33 mg/dL | CREATINE PHOSPHOKINASE (120 h, time 5 day): 321 u/L | CREATININE (120 h, time 5 day): 0.15 mg/dL | GLUCOSE (120 h, time 5 day): 173.33 mg/dL | LACTATE DEHYDROGENASE (120 h, time 5 day): 214.67 u/L | LIPASE (120 h, time 5 day): 9.67 u/L | PHOSPHORUS (120 h, time 5 day): 11.03 mg/dL | POTASSIUM (120 h, time 5 day): 5.83 MEQ/L | SODIUM (120 h, time 5 day): 145.17 MEQ/L | TOTAL BILIRUBIN (120 h, time 5 day): 0.13 mg/dL | TOTAL PROTEIN (120 h, time 5 day): 5.53 G/DL | URIC ACID (120 h, time 5 day): 1.13 mg/dL
